Experimental data reported in publication PMC9913752, “Proof-of-Concept Study of an Alpha-Fetoprotein-Derived Peptide for the Management of Canine Mammary Cancer” (Animals : an Open Access Journal from MDPI, 2023).
Where a SMILES comes first, the peptide text is derived from it. [ ]: non-standard residue; d: D form. Hyp = O=C(O)[C@@H]1C[C@@H](O)CN1

What was measured:
[1] = Pharmacokinetics in mice; assay type: in vivo; conditions: mouse; for Cmax / AUC: plasma LC/MS/MS; for half-life: in vivo
Protocol: (§1) AFPep (4 mg/kg) was administered by parenteral (i.v., s.c.) as well as oral routes to normal adult mice, dogs, and monkeys. Blood samples were obtained from anesthetized mice via the retroorbital plexus. Blood samples from dogs and monkeys were obtained through an indwelling catheter in the cephalic vein by the veterinarian staff at Albany Medical College. Dogs were awake and alert during sampling; monkeys were under anesthesia, as previously described. For the oral route, gavage was used in mice and monkeys; enteric capsules ([…]) containing AFPep were used and were readily swallowed by dogs. AFPep blood levels were measured using lliquid chromatography and mass spectrometry, as previously described.

[2] = Clinical parameters in unanesthetized dogs; assay type: in vivo, dog
[3] = tested on: MNU-induced mammary tumors; conditions: cited from earlier work
Source text: Table 1 The therapeutic and preventive efficacy of AFPep * in rodent models of mammary cancer. | column: MNU-Induced Mammary Tumors in Sprague Dawley Rats ^2 || As models for preventive interventions, two widely used mammary cancer induction models in rats were studied to assess the cancer prevention capabilities of AFPep.

[4] = in vivo; parameters: species or system Macaca mulatta; conditions: monkey
Protocol: as §1

[5] = Pharmacokinetics in dogs; assay type: in vivo; conditions: dog; for AUC / Cmax: plasma LC/MS/MS
Protocol: as §1

[6] = unanesthetized dogs, 30 min Post AFPep, mean ± SE from 6 dogs
[7] = p.o. enteric capsules (DRcaps), 4 mg/kg per footnote (100 mg/kg orally)

## CC(C)[C@@H]1NC(=O)[C@@H]2C[C@@H](O)CN2C(=O)[C@H]([C@@H](C)O)NC(=O)[C@H](CCCCN)NC(=O)[C@H](CCC(=O)O)NC(=O)[C@H](CC(N)=O)NC(=O)CNC(=O)[C@@H]2C[C@@H](O)CN2C(=O)[C@H](CC(N)=O)NC1=O [AFPep] (cyclo(EKT[Hyp]VN[Hyp]GN))
[1]; iv, 4 mg/kg (100 µg/mouse), non-linear regression, first-order PK model
  Cmax: 12000 ng/mL
[1]; iv, 4 mg/kg
  AUC: 4200 ng·h/mL
  half-life: 11 min
[1]; po
  half-life: 6.3 min
[1]; sc, 4 mg/kg
  half-life: 11 min
  AUC: 3450 ng·h/mL
  Cmax: 6400 ng/mL
[1]; po, p.o. gavage, 4 mg/kg per footnote (100 mg/kg orally)
  AUC: 80 ng·h/mL
[1]; po, p.o. gavage, 4 mg/kg per footnote (escalated to 100 mg/kg orally)
  Cmax: 140 ng/mL
[2]; dogs
  other clinical indicators (mobility, playfulness, appetite, stool consistency, heart rate, respiration rate, capillary refill time, body temperature): remained normal
  reflux or vomiting after administration: no evidence of reflux or vomiting
[2]; unanesthetized dogs, 30 min Post AFPep, 6 dogs
  Capillary refill time: <2 s
[2]; unanesthetized dogs, 30 min Post AFPep, mean from 6 dogs
  Body temperature: 39.0 °C
[2]; [6]
  Heart Rate: 112 ± 5
  Respiration Rate: 28 ± 4
[3]; MNU 50 mg/kg, AFPep 4 mg/kg s.c. once daily for 23 days from 10 days after MNU, p < 0.05
  MNU-Induced Mammary Tumors in Sprague Dawley Rats, % of Rats with Tumors: 40 * %
[3]; chemically induced model
  latency period of cancer appearance: prolonged
[4]; iv, 4 mg/kg
  AUC: 26200 ng·h/mL
  Cmax: 13000 ng/mL
  half-life: 107 min
[4]; po
  half-life: 810 min
[4]; sc, 4 mg/kg
  AUC: 23400 ng·h/mL
  Cmax: 8200 ng/mL
  half-life: 27 min
[5]; in vivo
  T1/2: 39 min
[5]; in vivo, iv, 4 mg/kg
  half-life: 18 min
[5]; in vivo, sc, 4 mg/kg
  half-life: 65 min
[5]; [7]
  AUC: 14 min(µg/mL)
  Cmax: 100 ng/mL
[5]; iv, i.v., 4 mg/kg, non-linear regression, first-order PK model, read-out: Cmax
  Cmax: 35000 ng/mL
[5]; iv, i.v., 4 mg/kg, read-out: AUC (converted)
  AUC: 15000 ng·h/mL
[5]; sc, s.c., 4 mg/kg, read-out: AUC (converted)
  AUC: 13500 ng·h/mL
[5]; sc, s.c., 4 mg/kg, read-out: Cmax
  Cmax: 5800 ng/mL
